“Also recorded” adds a separate entry of the source.
How the values were obtained:
PG16 [1] = experiment: Glycan microarray on NHS-coated glass slide, binding of PG16; design: species or system human; conditions: NHS-activated glass slide, glycans printed at 100 μM
Experimental: To gain insights into the glycan specificities of these antibodies, the inventors used our newly developed array to profile the ligands of HIV-1 bNAbs. The synthetic N-glycan ligands were printed on NHS-activated glass slides through amide bond formation with 100 μM each of glycans 1-33 (FIG. 198). Each sample was printed with five replicates and slide images were obtained from a fluorescence scan after incubation with DyLight649-conjugated donkey anti-Human IgG antibody. […] Furthermore, PG9 and PGTs 141-145 were not detected to bind any of the glycans on the NHS array, probably due to their extremely weak binding. (FIGS. 203, 204A, 204B, 204C, 205A, 205B and 206).
a) Fabrication of N-hydroxy succinimide-coated glass slide: All monovalent glycans (G1-33) were prepared in 10 mM concentration individually and served as mother solutions which are to be diluted with printing buffer to prepare a working solution. […]
(§1) The slide was scanned at 635 nm with a microarray fluorescence chip reader (GenePix® 4300A, Molecular Devices Corporation). Scanned images were analyzed with GenePix Pro 6.0 analysis software (Molecular Devices Corporation,). […] The intensities was calculated and averaged. […]

PGTs 141-144 = experiment: Glycan array on ACG slide, binding of PGTs 141-144; design: species or system human; conditions: panel of glycans I-XI
Experimental: To understand the exact glycan epitopes recognized by antibodies PGTs 141-145^20, a panel of glycans I-XI on the ACG slide was prepared for analysis.
b) Fabrication of aluminum oxide coated glass slide. The aluminum oxide glass substrate provides advantages for being able to be assessed by both mass spectrometry and fluorescence scanning. […] There are many reports describing the surface of micron to nano pore structures of anodized aluminum oxide. However, only a few articles have mentioned the initial planar layer of aluminum oxide16 during the treatment of surface anodization. In the development of AAO glass substrate, a computer experimental design program (Design Expert 8.0) has been used to optimize the planar layer of surface anodized aluminum oxide to be best used in glycan microarray 17.
Antibodies PG9, PG16 and PGTs 141-145 were diluted by binding buffer to 100 μg/mL prior to use. DyLight649-conjugated Donkey Anti-Human IgG antibody was then pre-complexed with primary antibodies. The final concentration of the precomplexed solution was adjusted to 50 μg/mL with binding buffer. […]
as §1

PG9 = experiment: Glycan array on aluminium oxide-coated glass (ACG) slide, homo- and mixed glycans, binding of PG9; conditions: homogeneous array of glycans I-XI
Source text: To evaluate whether the ACG array format could enhance the detection sensitivity, the inventors performed a ligand specificity profiling at various concentrations of PG9. […] Previously, it was shown that PG9 required Man5GlcNAc2 at primary (Asn160) and secondary (Asn156 or Asn173) binding sites together with a short peptide strand in gp120 recognition^26, whereas the composition of glycan at Asn156 or Asn173 was defined as a complex-type glycan in later studies^30,31. In the present study, the strong PG9 interaction with the hybrid-type structure compared to both Man5GlcNAc2 and complex-type glycans indicated the presence of a hybrid-type glycan or an oligomannose and a complex-type glycan in close proximity as ligand(s).
To evaluate the glycan combination at Asn160 and Asn156/Asn173 of gp120 that best fits into the PG9 binding pocket, the inventors printed two different mixed-glycan arrays. […]
(§2) b) Fabrication of aluminum oxide coated glass slide. The aluminum oxide glass substrate provides advantages for being able to be assessed by both mass spectrometry and fluorescence scanning. […]
as §1

PG16 [2] = experiment: Determination of surface dissociation constants (KD,surf) on ACG slide; assay type: binding, human
Source text: (§3) To further understand why glycan binding to these bNAbs was not readily observed on the NHS-coated glass slides, the inventors conducted a specificity test with the ACG array. […] Therefore, the inventors can simply adjust the concentration of glycan to control the density and distance of glycans on the ACG surface. To prepare a representative ACG array, glycans I-XI (FIG. 5a) were linked to a phosphonic acid tail for spontaneous covalent immobilization on the ACG slide (Supplementary Scheme S21, as shown in FIG. 129). After incubation with a secondary antibody, the inventors determined the dissociation constant (KD.surf.)^59 of the glycans interacting with the antibody of interest. […]
as §2
The aluminum oxide coated glass slides for the determination of dissociation constants were spotted with 100 and 50 μM concentrations of glycans Man5GlcNAc2 (V), hybrid type (XI), bi-antennary complex type (XII), V+XI (1:1 mole ratio), V+XII, and XI+XII. […] Finally, slides were washed with PBST, spin dried and scanned at 450 nm with a microarray fluorescence chip reader. Scanned images were analyzed with GenePix Pro 6.0 analysis software. […]

PG16 [3] = experiment: Glycan array on aluminium oxide-coated glass (ACG) slide, homo- and mixed glycans, binding of PG16; conditions: 100 μM glycan or mixtures of IV and XI
Source text: as §3, with “interest. Using the ACG slide, the signal intensity was enhanced, as shown by the use of PG16 at 1 μg/mL on the ACG slide in comparison to 25 μg/mL used on the NHS-coated glass slide (FIG. 5b and Supplementary FIG. 199).” for “interest.”
as §2, §1

Question: With “5-Aminopentyl-di-[5-Acetamido-3,5-dideoxy-D-glycero-α-D-galacto-2-nonulopyrano-sylonate-(2→6)-β-D-galactopyranosyl-(1→4)-2-acetamido-2-deoxy-β-D-glucopyranosyl-(1→2)-α-D-mannopyranosyl]-(1→3),(1→6)-β-D-mannopyranosyl-(1→4)-2-acetamido-2-deoxy-β-D-glucopyranosyl-(1→4)-(α-L-fucopyranosyl-(1→6)-2-acetamido-2-deoxy-β-D-glucopyranoside [glycan 19]” as the molecule, how does the “binding of PG16” value (PG16 [1]) read?
Answer: not affected by the presence of the core fucose

Question: Which “binding of PGTs 141-144” value (PGTs 141-144) does the source give for CC(=O)N[C@H]1[C@H](O[C@H]2[C@H](O)[C@@H](NC(C)=O)C(O)O[C@@H]2CO)O[C@H](CO)[C@@H](O[C@@H]2O[C@H](CO[C@H]3O[C@H](CO[C@H]4O[C@H](CO)[C@@H](O)[C@H](O)[C@@H]4O[C@H]4O[C@H](CO)[C@@H](O)[C@H](O)[C@@H]4O)[C@@H](O)[C@H](O[C@H]4O[C@H](CO)[C@@H](O)[C@H](O)[C@@H]4O[C@H]4O[C@H](CO)[C@@H](O)[C@H](O)[C@@H]4O)[C@@H]3O)[C@@H](O)[C@H](O[C@H]3O[C@H](CO)[C@@H](O)[C@H](O)[C@@H]3O[C@H]3O[C@H](CO)[C@@H](O)[C@H](O)[C@@H]3O[C@H]3O[C@H](CO)[C@@H](O)[C@H](O)[C@@H]3O)[C@@H]2O)[C@@H]1O (stereo partly shown) [Man9GlcNAc2] here?
Answer: significant decrease in the affinity

Question: For CC(=O)NC1C(O)[C@H](O[C@@H]2OC(CO[C@]3(C(=O)O)CC(O)[C@@H](NC(C)=O)C([C@H](O)[C@H](O)CO)O3)[C@H](O)C(O)C2O)C(CO)O[C@H]1OC1C(O)[C@H](O)C(CO)O[C@@H]1OC1C(O)[C@H](O[C@@H]2C(CO)O[C@@H](O[C@@H]3C(CO)O[C@@H](OCCNC(=O)OCCOCCOCCP(=O)(O)O)C(NC(C)=O)C3O)C(NC(C)=O)C2O)OC(CO[C@H]2OC(CO[C@H]3OC(CO)[C@@H](O)C(O)C3O)[C@@H](O)C(O[C@H]3OC(CO)[C@@H](O)C(O)C3O)C2O)[C@H]1O (stereo partly shown) [X], which “binding of PG9 to single glycans” value (PG9) is on record?
Answer: apparent specificity; also recorded: significant enhancement in binding

Question: What about the Kd (PG16 [2]; read-out: KD (binding affinity of PG16)) of the same molecule?
Answer: 935 nM

Question: For Man5GlcNAc2, which “binding of PG16” value (PG16 [3]) is on record?
Answer: unable to detect PG16 binding

Question: And the “binding of PG16” value (PG16 [1])?
Answer: could not observe binding

Question: What about the “signal intensities for binding of PG16” value (PG16 [2]; glycans spotted at 100 and 50 μM) of the same molecule?
Answer: too weak to determine the KD
